# Data: PubChem BioAssay (NCI)
#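 GI50: concentration for 50% inhibition of growth. TGI: concentration producing complete growth inhibition.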
# Key:
# Assay in all cases: growth of human tumour cells (NCI), 384-well format
# [1] = system: IGROV1 ovarian
# [2] = system: OVCAR-3 ovarian
# [3] = system: 786-0 renal
# [4] = system: RXF 393 renal
# [5] = system: SF-268 CNS
# [6] = system: SK-MEL-28 melanoma
# [7] = system: CCRF-CEM leukemia
# [8] = system: NCI/ADR-RES ovarian
# [9] = system: MOLT-4 leukemia
# [10] = system: COLO 205 colon
# [11] = system: OVCAR-8 ovarian
# [12] = system: CAKI-1 renal
# [13] = system: DU-145 prostate
# [14] = system: SF-295 CNS
# [15] = system: HOP-92 NSCLC
# [16] = system: K-562 leukemia
# [17] = system: HOP-62 NSCLC
# [18] = system: HS 578T breast
# [19] = system: UO-31 renal
# [20] = system: OVCAR-5 ovarian
# [21] = system: OVCAR-4 ovarian
# [22] = system: NCI-H460 NSCLC
# [23] = system: MDA-MB-468 breast
# [24] = system: BT-549 breast
# [25] = system: A498 renal
# [26] = system: MALME-3M melanoma
# [27] = system: NCI-H23 lung
# [28] = system: SN12C renal
# [29] = system: MDA-MB-231 breast
# [30] = system: SF-539 CNS
# [31] = system: A549 NSCLC
# [32] = system: SK-OV-3 ovarian
# [33] = system: UACC-257 melanoma
# [34] = system: SNB-19 CNS
# [35] = system: EKVX NSCLC
# [36] = system: HL-60(TB) leukemia
# [37] = system: TK-10 renal
# [38] = system: T-47D breast
# [39] = system: HCC-2998 colon
# [40] = system: HCT-15 colon
# [41] = system: U251 glioblastoma
# [42] = system: HCT-116 colon
# [43] = system: SW-620 colon
# [44] = system: SNB-75 CNS
# [45] = system: NCI-H322M lung
# [46] = system: NCI-H522 lung
# [47] = system: UACC-62 melanoma
# [48] = system: KM12 colon
# [49] = system: ACHN renal
# [50] = system: HT29 colon
# [51] = system: RPMI-8226 leukemia
# [52] = system: PC-3 prostate
# [53] = system: SR leukemia
# [54] = system: MCF7 breast
# [55] = system: SK-MEL-2 melanoma
# [56] = system: MDA-MB-435 melanoma
# [57] = system: M14 melanoma
# [58] = system: SK-MEL-5 melanoma
# [59] = system: NCI-H226 lung
smiles,measurement,setting,value
O=C1CCC(N2Cc3cc(CNC(=O)C(F)(F)c4ccc(Cl)cc4)ccc3C2=O)C(=O)N1 (stereo not given),GI50,[1],0.568 µM
same,TGI,[1],> 100 µM
same,GI50,[2],> 100 µM
same,TGI,[2],> 100 µM
same,GI50,[3],> 100 µM
same,TGI,[3],> 100 µM
same,GI50,[4],> 100 µM
same,TGI,[4],> 100 µM
same,GI50,[5],> 100 µM
same,TGI,[5],> 100 µM
same,GI50,[6],> 100 µM
same,TGI,[6],> 100 µM
same,GI50,[7],< 0.01 µM
same,TGI,[7],0.015 µM
same,GI50,[8],24.7 µM
same,TGI,[8],> 100 µM
same,GI50,[9],< 0.01 µM
same,TGI,[9],0.0133 µM
same,GI50,[10],0.142 µM
same,TGI,[10],> 100 µM
same,GI50,[11],0.059 µM
same,TGI,[11],> 100 µM
same,GI50,[12],> 100 µM
same,TGI,[12],> 100 µM
same,GI50,[13],> 100 µM
same,TGI,[13],> 100 µM
same,GI50,[14],> 100 µM
same,TGI,[14],> 100 µM
same,GI50,[15],0.21 µM
same,TGI,[15],> 100 µM
same,GI50,[16],68.4 µM
same,TGI,[16],> 100 µM
same,GI50,[17],0.835 µM
same,TGI,[17],> 100 µM
same,GI50,[18],0.0781 µM
same,TGI,[18],> 100 µM
same,GI50,[19],> 100 µM
same,TGI,[19],> 100 µM
same,GI50,[20],> 100 µM
same,TGI,[20],> 100 µM
same,GI50,[21],> 100 µM
same,TGI,[21],> 100 µM
same,GI50,[22],> 100 µM
same,TGI,[22],> 100 µM
same,GI50,[23],< 0.01 µM
same,TGI,[23],0.0301 µM
same,GI50,[24],0.0613 µM
same,TGI,[24],32.2 µM
same,GI50,[25],> 100 µM
same,TGI,[25],> 100 µM
same,GI50,[26],0.101 µM
same,TGI,[26],> 100 µM
same,GI50,[27],> 100 µM
same,TGI,[27],> 100 µM
same,GI50,[28],> 100 µM
same,TGI,[28],> 100 µM
same,GI50,[29],0.087 µM
same,TGI,[29],> 100 µM
same,GI50,[30],> 100 µM
same,TGI,[30],> 100 µM
same,GI50,[31],> 100 µM
same,TGI,[31],> 100 µM
same,GI50,[32],> 100 µM
same,TGI,[32],> 100 µM
same,GI50,[33],> 100 µM
same,TGI,[33],> 100 µM
same,GI50,[34],> 100 µM
same,TGI,[34],> 100 µM
same,GI50,[35],> 100 µM
same,TGI,[35],> 100 µM
same,GI50,[36],< 0.01 µM
same,TGI,[36],0.0106 µM
same,GI50,[37],> 100 µM
same,TGI,[37],> 100 µM
same,GI50,[38],0.0216 µM
same,TGI,[38],17.8 µM
same,GI50,[39],0.0908 µM
same,TGI,[39],> 100 µM
same,GI50,[40],0.744 µM
same,TGI,[40],> 100 µM
same,GI50,[41],> 100 µM
same,TGI,[41],> 100 µM
same,GI50,[42],> 100 µM
same,TGI,[42],> 100 µM
same,GI50,[43],0.0885 µM
same,TGI,[43],> 100 µM
same,GI50,[44],0.463 µM
same,TGI,[44],> 100 µM
same,GI50,[45],> 100 µM
same,TGI,[45],> 100 µM
Nc1nc(OCc2ccccc2)c2[nH]cnc2n1,GI50,[1],25.7 µM
same,TGI,[1],90.5 µM
same,GI50,[2],69.1 µM
same,GI50,[3],35.9 µM
same,GI50,[4],32.5 µM
same,TGI,[4],88.7 µM
same,GI50,[46],20.8 µM
same,TGI,[46],60.7 µM
same,GI50,[5],66.3 µM
same,GI50,[6],66.9 µM
same,GI50,[7],28.4 µM
same,TGI,[7],88.9 µM
same,GI50,[9],28.9 µM
same,GI50,[47],31.4 µM
same,GI50,[10],65.7 µM
same,GI50,[11],66.4 µM
same,GI50,[12],20.8 µM
same,TGI,[12],55.9 µM
same,GI50,[13],52.3 µM
same,GI50,[48],66.1 µM
same,GI50,[15],36.8 µM
same,GI50,[49],46.1 µM
same,GI50,[17],36.7 µM
same,GI50,[50],53.3 µM
same,GI50,[18],16.6 µM
same,TGI,[18],43.7 µM
same,GI50,[20],70.4 µM
same,GI50,[51],18.5 µM
same,TGI,[51],37.8 µM
same,GI50,[21],64.4 µM
same,GI50,[22],37.8 µM
same,GI50,[23],25 µM
same,TGI,[23],61 µM
same,GI50,[24],26.9 µM
same,TGI,[24],78.5 µM
same,GI50,[25],19.6 µM
same,TGI,[25],91.9 µM
same,GI50,[26],30.9 µM
same,TGI,[26],79.1 µM
same,GI50,[52],55.2 µM
same,GI50,[27],31.8 µM
same,GI50,[29],34.6 µM
same,GI50,[30],34.7 µM
same,GI50,[31],64.5 µM
same,GI50,[53],30.9 µM
same,TGI,[53],78.4 µM
same,GI50,[32],23.2 µM
same,TGI,[32],50.1 µM
same,GI50,[54],56.2 µM
same,GI50,[55],37.2 µM
same,TGI,[55],65.8 µM
same,GI50,[56],52.4 µM
same,GI50,[33],61.6 µM
same,GI50,[35],43.3 µM
same,GI50,[36],30.2 µM
same,TGI,[36],78.3 µM
same,GI50,[37],15.8 µM
same,TGI,[37],60.7 µM
same,GI50,[57],30.4 µM
same,TGI,[57],95.8 µM
same,GI50,[38],34.5 µM
same,GI50,[58],27.9 µM
same,GI50,[39],30.8 µM
same,GI50,[40],28.4 µM
same,GI50,[59],29.3 µM
same,TGI,[59],80.7 µM
same,GI50,[41],38.3 µM
same,GI50,[44],19.6 µM
same,TGI,[44],76.5 µM
same,GI50,[45],57.5 µM
